Measurements taken from the supplement of paper PMC11208160.

Test: recombinant barcode read abundance after kanamycin selection (control-corrected) (log10(CPM+1)); higher = more efficient recombination; sequences stand for … in AGTGCAGAGAAAATCGGCCAGTTTTCTCTGCCTGCAGTCCGCATGCCGT…AGATTTATGCAGCGGACTGCCTTTCTCCCAAAGTGATAAACCGGACAGTATCATGGACCGGTTTTCCCGGTAATCCGTATTTGCAAGGTTGGTTTCACT; site = the 11-nt target
Outline: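 Recombination efficiency comes from barcode counts at recombinant junctions, converted to counts per million, averaged and corrected against the control. Values appear as log10(CPM+1). They were obtained from a pooled E. coli screen in which each oligo paired a target with an IS621 bridge RNA target-binding loop, and cells were plated in duplicate on chloramphenicol/ampicillin LB agar or on chloramphenicol/ampicillin/kanamycin with 0.1 mM IPTG.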
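Further: IS621 recombinase and bridge RNA in Escherichia coli cells.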

Sequence | recombinant barcode read abundance (log10)
TAGATTCCTTGGGTTCTAACCTGTTGCAA (site TAGATTCCTTT) | 0.0712
GGGGTTCCTTGGGTTCTAACCTGTTGCGT (site GGGGTTCCTAG) | 1.35
GGGGCATCTTGGGTTCTAACCTGTTGCTT (site GGGGCGTCTAA) | 0.0873
AGGCTGCCTTGGGTTCTAACCTGTTGCCT (site AGGCTGCCTAG) | 0.867
ACCAAGCCTTGGGTTCTAACCTGTTGCGG (site ACCAAGCCTCC) | 1.36
GTGATCCCTTGGGTTCTAACCTGTTGCCT (site GAGATCCCTAG) | 0.585
ATGGTGGCTTGGGTTCTAACCTGTTGCCT (site ATGGTGTCTAG) | 0.241
CATAGAGCTTGGGTTCTAACCTGTTGCCT (site CATAGGGCTCG) | 0.215
CGTAGCTCTTGGGTTCTAACCTGTTGCCT (site CGTAGCTCTAG) | 0.516
CAACTAGCTTGGGTTCTAACCTGTTGCAT (site CAACTAGCTAT) | 0.691
AAGTTGACTTGGGTTCTAACCTGTTGCCT (site AAATTGACTAG) | 0.378
TCGTAGACTTGGGTTCTAACCTGTTGCTA (site TCGTAGACTTA) | 0.215
CTTCACCCTTGGGTTCTAACCTGTTGCCT (site CTTCATCCTAG) | 0.00728
GCGGAGTCTTGGGTTCTAACCTGTTGCGT (site GCTAAGTCTAC) | 0.0484
TTCTGAACTTGGGTTCTAACCTGTTGCCT (site GTCTCAACTAG) | 0.109
GGTGGGTCTTGGGTTCTAACCTGTTGCGT (site GGTGGGTCTAG) | 1.1
AAGTTGACTTGGGTTCTAACCTGTTGCCT (site AAGTTGACTAG) | 1.57
CGGTGAACTTGGGTTCTAACCTGTTGCCT (site CCGTGAACTAG) | 0.148
TATAATACTTGGGTTCTAACCTGTTGCGG (site TATAATACTCC) | 0.659
AGAAGTCCTTGGGTTCTAACCTGTTGCCG (site AGAAGTCCTCT) | 0.221
TGCTGTGCTTGGGTTCTAACCTGTTGCCT (site TGCTGTCCTAG) | 0.179
ACCTGAACTTGGGTTCTAACCTGTTGCCT (site ACCTGAACTAG) | 0.75

Sequence | recombinant barcode read abundance (log10)
AGGAACACTTGGGTTCTAACCTGTTGCTT (site AGGAACACTAA) | 1.56
CTTCACCCTTGGGTTCTAACCTGTTGCCT (site CTTCAGCCTAG) | 0.117
ATCCGCTCTTGGGTTCTAACCTGTTGCCT (site CTCCGCTCTAG) | 1
ACATGTCCTTGGGTTCTAACCTGTTGCAT (site ACATGTCCTAG) | 0.137
CGGGGTTCTTGGGTTCTAACCTGTTGCCT (site CTGGGTTCTAG) | 0.0823
GCGCTCCCTTGGGTTCTAACCTGTTGCCT (site GCACTCCCTAG) | 1.25
AGTTCTCCTTGGGTTCTAACCTGTTGCCG (site GAGCAGGCTAA) | 0.0339
ACAAAGACTTGGGTTCTAACCTGTTGCGC (site ACAGAGACTGC) | 0.326
CGTTGATCTTGGGTTCTAACCTGTTGCCT (site CGTTGATCTAG) | 0.234
GACCGGGCTTGGGTTCTAACCTGTTGCCT (site GACCGAGCTAG) | 0.092
GTACGATCTTGGGTTCTAACCTGTTGCGG (site GTACGATCTCC) | 0.753
TTGGTCACTTGGGTTCTAACCTGTTGCCT (site TTGGCCACTAG) | 0.309
AGGGTAGCTTGGGTTCTAACCTGTTGCCT (site AGGGAAGCTAG) | 0.101
AACTCTCCTTGGGTTCTAACCTGTTGCAT (site AACTCTCCTAT) | 0.588
ACGGGTTCTTGGGTTCTAACCTGTTGCCT (site TCCGGTTCTAG) | 0.107
GGACAGTCTTGGGTTCTAACCTGTTGCGT (site GGACAGTCTAC) | 2.56
TCGTAGACTTGGGTTCTAACCTGTTGCTA (site GGTCGCCCTAC) | 0.16
GAGCAGACTTGGGTTCTAACCTGTTGCCT (site GAGCGGACTAG) | 0.235
GGGCACTCTTGGGTTCTAACCTGTTGCCT (site GGGCACTCTAC) | 0.0754
ACGTTGCCTTGGGTTCTAACCTGTTGCCT (site ACGTTGCCTAG) | 0.316
CACTTGCCTTGGGTTCTAACCTGTTGCCT (site CACTTGTCTAG) | 0.614
